Measured values from US10894784B2, “Heteroarylbenzimidazole compounds” (BAYER PHARMA AKTIENGESELLSCHAFT, priority 2015, dated 2021).

molecular target: TBK1 (Homo sapiens (Human), UniProt Q9UHD2); test: TBK1 low ATP kinase assay (in vitro assay 1); format: biochemical; conditions: in vitro assay 1, read-out: TBK1 low ATP kinase assay IC50
Sequence (Q9UHD2 whole entry): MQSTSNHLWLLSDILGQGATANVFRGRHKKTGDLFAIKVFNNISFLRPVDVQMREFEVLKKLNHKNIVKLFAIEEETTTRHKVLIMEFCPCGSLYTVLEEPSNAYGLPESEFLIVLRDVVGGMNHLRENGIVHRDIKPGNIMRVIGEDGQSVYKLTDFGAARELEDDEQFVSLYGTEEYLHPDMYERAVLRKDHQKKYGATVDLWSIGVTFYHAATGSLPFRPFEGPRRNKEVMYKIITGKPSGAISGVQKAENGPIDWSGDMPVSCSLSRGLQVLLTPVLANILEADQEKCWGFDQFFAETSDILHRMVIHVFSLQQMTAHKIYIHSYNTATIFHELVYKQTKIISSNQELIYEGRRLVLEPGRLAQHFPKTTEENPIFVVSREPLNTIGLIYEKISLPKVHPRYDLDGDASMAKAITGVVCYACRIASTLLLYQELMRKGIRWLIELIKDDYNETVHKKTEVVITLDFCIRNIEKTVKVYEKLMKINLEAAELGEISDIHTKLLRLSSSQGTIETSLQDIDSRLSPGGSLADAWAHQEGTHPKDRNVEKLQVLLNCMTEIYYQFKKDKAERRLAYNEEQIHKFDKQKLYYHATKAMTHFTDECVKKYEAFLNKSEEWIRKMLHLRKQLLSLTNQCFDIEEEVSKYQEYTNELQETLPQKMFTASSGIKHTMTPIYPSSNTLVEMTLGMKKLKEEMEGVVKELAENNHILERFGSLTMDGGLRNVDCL

IC50 [nM]	SMILES
577	CC(C)Cc1nc(-c2ccc3nc(Nc4cc(CN5CCN(C(=O)OC(C)(C)C)CC5)ccn4)[nH]c3c2)n(C)n1 [Example 42.01, tert-butyl 4-{[2-({6-[1-methyl-3-(2-methylpropyl)-1H-1,2,4-triazol-5-yl]-1H-benzimidazol-2-yl}amino)pyridin-4-yl]methyl}piperazine-1-carboxylate]
397	CC(C)Cc1nc(-c2ccc3nc(Nc4cc(CN5CCN(C(=O)CC(F)(F)F)CC5)ccn4)[nH]c3c2)n(C)n1 [Example 42.02, 3,3,3-trifluoro-1-(4-{[2-({6-[1-methyl-3-(2-methylpropyl)-1H-1,2,4-triazol-5-yl]-1H-benzimidazol-2-yl}amino)pyridin-4-yl]methyl}piperazin-1-yl)propan-1-one]
262	O=C(C1CC1)N1CCN(Cc2ccnc(Nc3nc4ccc(-c5ncc[nH]5)cc4[nH]3)c2)CC1 [Example 43.01, cyclopropyl{4-[(2-{[6-(1H-imidazol-2-yl)-1H-benzimidazol-2-yl]amino}pyridin-4-yl)methyl]piperazin-1-yl}methanone]
1840	Cc1c[nH]c(-c2ccc3nc(Nc4cc(CN5CCN(C(=O)C6CC6)CC5)ccn4)[nH]c3c2)n1 [Example 43.02, cyclopropyl{4-[(2-{[6-(4-methyl-1H-imidazol-2-yl)-1H-benzimidazol-2-yl]amino}pyridin-4-yl)methyl]piperazin-1-yl}methanone]
696	O=C(C1CC1)N1CCN(Cc2ccnc(Nc3nc4ccc(-c5nc(C6CC6)c[nH]5)cc4[nH]3)c2)CC1 [Example 43.03, cyclopropyl{4-[(2-{[6-(4-cyclopropyl-1H-imidazol-2-yl)-1H-benzimidazol-2-yl]amino}pyridin-4-yl)methyl]piperazin-1-yl}methanone]
94	O=C(CC(F)(F)F)N1CCN(Cc2ccnc(Nc3nc4ccc(-c5ccn(CC6CC6)c(=O)c5)cc4[nH]3)c2)CC1 [Example 44.01, 1-(cyclopropylmethyl)-4-{2-[(4-{[4-(3,3,3-trifluoropropanoyl)piperazin-1-yl]methyl}pyridin-2-yl)amino]-1H-benzimidazol-6-yl}pyridin-2(1H)-one]
66.8	O=C(C1CC1)N1CCN(Cc2ccnc(Nc3nc4ccc(-c5ccn(CC6CC6)c(=O)c5)cc4[nH]3)c2)CC1 [Example 44.02, 4-{2-[(4-{[4-(cyclopropylcarbonyl)piperazin-1-yl]methyl}pyridin-2-yl)amino]-1H-benzimidazol-6-yl}-1-(cyclopropylmethyl)pyridin-2(1H)-one]
85.8	O=C(C1CCC1)N1CCN(Cc2ccnc(Nc3nc4ccc(-c5ccn(CC6CC6)c(=O)c5)cc4[nH]3)c2)CC1 [Example 44.03, 4-{2-[(4-{[4-(cyclobutylcarbonyl)piperazin-1-yl]methyl}pyridin-2-yl)amino]-1H-benzimidazol-6-yl}-1-(cyclopropylmethyl)pyridin-2(1H)-one]
323	O=C(CC(F)(F)F)N1CCN(Cc2ccnc(Nc3nc4ccc(-c5cncnc5)cc4[nH]3)c2)CC1 [Example 45.01.01, 3,3,3-trifluoro-1-{4-[(2-{[6-(pyrimidin-5-yl)-1H-benzimidazol-2-yl]amino}pyridin-4-yl)methyl]piperazin-1-yl}propan-1-one]
397	O=C(CC1CC1)N1CCN(Cc2ccnc(Nc3nc4ccc(-c5cncnc5)cc4[nH]3)c2)CC1 [Example 45.01.02, 2-cyclopropyl-1-{4-[(2-{[6-(pyrimidin-5-yl)-1H-benzimidazol-2-yl]amino}pyridin-4-yl)methyl]piperazin-1-yl}ethanone]
205	O=C(C1CC1)N1CCN(Cc2ccnc(Nc3nc4ccc(-c5cncnc5)cc4[nH]3)c2)CC1 [Example 45.01.03, cyclopropyl{4-[(2-{[6-(pyrimidin-5-yl)-1H-benzimidazol-2-yl]amino}pyridin-4-yl)methyl]piperazin-1-yl}methanone]
124	O=C(CC(F)(F)F)N1CCN(Cc2ccnc(Nc3nc4ccc(-c5cnc(Cl)nc5)cc4[nH]3)c2)CC1 [Example 45.02.01, 1-{4-[(2-{[6-(2-chloropyrimidin-5-yl)-1H-benzimidazol-2-yl]amino}pyridin-4-yl)methyl]piperazin-1-yl}-3,3,3-trifluoropropan-1-one]
380	O=C(C1CC1)N1CCN(Cc2ccnc(Nc3nc4ccc(-c5cnc(Cl)nc5)cc4[nH]3)c2)CC1 [Example 45.02.02, {4-[(2-{[6-(2-chloropyrimidin-5-yl)-1H-benzimidazol-2-yl]amino}pyridin-4-yl)methyl]piperazin-1-yl}(cyclopropyl)methanone]
3790	Cc1ncc(-c2ccc3nc(Nc4cc(CN5CCN(C(=O)CC(F)(F)F)CC5)ccn4)[nH]c3c2)cn1 [Example 45.03.01, 3,3,3-trifluoro-1-{4-[(2-{[6-(2-methylpyrimidin-5-yl)-1H-benzimidazol-2-yl]amino}pyridin-4-yl)methyl]piperazin-1-yl}propan-1-one]
1330	Cc1ncc(-c2ccc3nc(Nc4cc(CN5CCN(C(=O)C6CC6)CC5)ccn4)[nH]c3c2)cn1 [Example 45.03.02, cyclopropyl{4-[(2-{[6-(2-methylpyrimidin-5-yl)-1H-benzimidazol-2-yl]amino}pyridin-4-yl)methyl]piperazin-1-yl}methanone]
2240	O=C(C1CC1)N1CCN(Cc2ccnc(Nc3nc4ccc(-c5cnc(C6CC6)nc5)cc4[nH]3)c2)CC1 [Example 45.04.01, cyclopropyl{4-[(2-{[6-(2-cyclopropylpyrimidin-5-yl)-1H-benzimidazol-2-yl]amino}pyridin-4-yl)methyl]piperazin-1-yl}methanone]
1430	CSc1ncc(-c2ccc3nc(Nc4cc(CN5CCN(C(=O)CC(F)(F)F)CC5)ccn4)[nH]c3c2)cn1 [Example 45.05.01, 3,3,3-trifluoro-1-(4-{[2-({6-[2-(methylsulfanyl)pyrimidin-5-yl]-1H-benzimidazol-2-yl}amino)pyridin-4-yl]methyl}piperazin-1-yl)propan-1-one]
1020	CSc1ncc(-c2ccc3nc(Nc4cc(CN5CCN(C(=O)CC6CC6)CC5)ccn4)[nH]c3c2)cn1 [Example 45.05.02, 2-cyclopropyl-1-(4-{[2-({6-[2-(methylsulfanyl)pyrimidin-5-yl]-1H-benzimidazol-2-yl}amino)pyridin-4-yl]methyl}piperazin-1-yl)ethanone]
840	CSc1ncc(-c2ccc3nc(Nc4cc(CN5CCN(C(=O)C6CC6)CC5)ccn4)[nH]c3c2)cn1 [Example 45.05.03, cyclopropyl(4-{[2-({6-[2-(methylsulfanyl)pyrimidin-5-yl]-1H-benzimidazol-2-yl}amino)pyridin-4-yl]methyl}piperazin-1-yl)methanone]
32.5	COc1nnccc1-c1ccc2nc(Nc3cc(CN4CCN(C(=O)C5CC5)CC4)ccn3)[nH]c2c1 [Example 46.01, cyclopropyl{4-[(2-{[6-(3-methoxypyridazin-4-yl)-1H-benzimidazol-2-yl]amino}pyridin-4-yl)methyl]piperazin-1-yl}methanone]
72.2	COc1nnc(Cl)cc1-c1ccc2nc(Nc3cc(CN4CCN(C(=O)C5CC5)CC4)ccn3)[nH]c2c1 [Example 46.02, {4-[(2-{[6-(6-chloro-3-methoxypyridazin-4-yl)-1H-benzimidazol-2-yl]amino}pyridin-4-yl)methyl]piperazin-1-yl}(cyclopropyl)methanone]
394	COc1ccc(-c2ccc3nc(Nc4cc(CN5CCN(C(=O)C6CC6)CC5)ccn4)[nH]c3c2)nn1 [Example 47.01, cyclopropyl{4-[(2-{[6-(6-methoxypyridazin-3-yl)-1H-benzimidazol-2-yl]amino}pyridin-4-yl)methyl]piperazin-1-yl}methanone]
504	COc1cnnc(-c2ccc3nc(Nc4cc(CN5CCN(C(=O)C6CC6)CC5)ccn4)[nH]c3c2)c1 [Example 47.02, cyclopropyl{4-[(2-{[6-(5-methoxypyridazin-3-yl)-1H-benzimidazol-2-yl]amino}pyridin-4-yl)methyl]piperazin-1-yl}methanone]
193	COc1cncc(-c2ccc3nc(Nc4cc(CN5CCN(C(=O)C6CC6)CC5)ccn4)[nH]c3c2)n1 [Example 48.01, cyclopropyl{4-[(2-{[6-(6-methoxypyrazin-2-yl)-1H-benzimidazol-2-yl]amino}pyridin-4-yl)methyl]piperazin-1-yl}methanone]
217	COc1cc(-c2ccc3nc(Nc4cc(CN5CCN(C(=O)C6CC6)CC5)ccn4)[nH]c3c2OCC(C)C)ccn1 [Example 49.01, cyclopropyl{4-[(2-{[6-(2-methoxypyridin-4-yl)-7-(2-methylpropoxy)-1H-benzimidazol-2-yl]amino}pyridin-4-yl)methyl]piperazin-1-yl}methanone]
499	COc1cnccc1-c1ccc2nc(Nc3cc(CN4CCN(C(=O)CC(F)(F)F)CC4)ccn3)[nH]c2c1OCC(C)C [Example 50.01, 3,3,3-trifluoro-1-{4-[(2-{[6-(3-methoxypyridin-4-yl)-7-(2-methylpropoxy)-1H-benzimidazol-2-yl]amino}pyridin-4-yl)methyl]piperazin-1-yl}propan-1-one]
333	COc1cnccc1-c1ccc2nc(Nc3cc(CN4CCN(C(=O)C5CC5)CC4)ccn3)[nH]c2c1OCC(C)C [Example 50.02, cyclopropyl{4-[(2-{[6-(3-methoxypyridin-4-yl)-7-(2-methylpropoxy)-1H-benzimidazol-2-yl]amino}pyridin-4-yl)methyl]piperazin-1-yl}methanone]
645	COc1cnccc1-c1ccc2nc(Nc3cc(CN4CCN(C(=O)C5CCC5)CC4)ccn3)[nH]c2c1OCC(C)C [Example 50.03, cyclobutyl{4-[(2-{[6-(3-methoxypyridin-4-yl)-7-(2-methylpropoxy)-1H-benzimidazol-2-yl]amino}pyridin-4-yl)methyl]piperazin-1-yl}methanone]
148	CCOc1c(-c2ccncc2OC)ccc2nc(Nc3cc(CN4CCN(C(=O)CC(F)(F)F)CC4)ccn3)[nH]c12 [Example 51.01, 1-{4-[(2-{[7-ethoxy-6-(3-methoxypyridin-4-yl)-1H-benzimidazol-2-yl]amino}pyridin-4-yl)methyl]piperazin-1-yl}-3,3,3-trifluoropropan-1-one]
